Values joined by “and” are separate entries in the source; they are usually repeats but may differ in a detail not shown here. Identical values can stand only once. Active and inactive are the calls of the source. No rule for the calls is given here.

In the assay the test system is in vivo angiogenesis, blood vessel count. Nature of the assay: angiogenesis inhibition in living animals, in vivo study, HTS (AID 732).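 Also: zebrafish embryos dosed at one day post fertilization; 0% = reference inhibitor and 100% = plate mean.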 The conditions noted are these: stronger effect = lower value;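 tested at 30 µM in the well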.
For `CC(CCc1ccccc1)NC(C)C(O)c1ccc(O)cc1` (configuration not stated), the vessel count % control is 98.4% (inactive). As for `Fc1ccc([C@@H]2CCNC[C@H]2COc2ccc3c(c2)OCO3)cc1`, the vessel count % control was 138% (inactive).

With `OCCN1CCN(CC/C=C2/c3ccccc3Sc3ccc(C(F)(F)F)cc32)CC1`, the vessel count % control is 110% (inactive). For `CN(C)CCOC(c1ccccc1)c1ccccc1`, the vessel count % control was 86.5% (inactive). Regarding `CCCCCCN(CCCCCC)C(=O)Cc1c(-c2ccc(F)cc2)[nH]c2ccccc12`, the vessel count % control was 126% (inactive). Consider `COc1ccc(CCN)cc1O`, for which the vessel count % control is 108% (inactive). `CC1=NS(=O)(=O)c2cc(Cl)ccc2N1`: the vessel count % control was 116% (inactive). For `N[C@@H](Cc1cnc[nH]1)C(=O)O`, the vessel count % control was 107% (inactive). Next, `CCO/C([O-])=N/c1c[n+](N2CCOCC2)no1`: 100% (inactive); `C[N+]1(C)CCN(c2ccccc2)CC1`: 89.3% (inactive).

As for `O=C(Cc1ccc(Cl)c(Cl)c1)OCCN1CCCC1`, the vessel count % control is 81.9% (inactive). Then `CCCCCCCCCCCCCCSCC(=O)O`, with 93.7% (inactive); and `S=C=Nc1cccc(C2(N3CCCCC3)CCCCC2)c1`, with 91% (inactive). Take `N[C@@H](CCCC(=O)O)C(=O)O`: the vessel count % control is 130% (inactive). In the case of `CCN(CC)C(=S)SSC(=S)N(CC)CC`, the vessel count % control is 0% (inactive). Then `O=C(c1cc(O)c(O)c([N+](=O)[O-])c1)c1ccccc1F`, with 116% (inactive); and `CC(C)Cc1ccc(C(C)C(=O)O)cc1` (configuration not stated), with 138% (inactive). With `N#C/C(=C\c1ccc(O)c(O)c1)C(=O)NCCCNC(=O)/C(C#N)=C/c1ccc(O)c(O)c1`, the vessel count % control is 118% (inactive).

Turning to `CN1CCN(C2Cc3ccccc3Sc3ccc(Cl)cc32)CC1` (configuration not stated), the vessel count % control is 120% (inactive). `O=C(CCCN1CCC2(CC1)C(=O)NCN2c1ccccc1)c1ccc(F)cc1`: the vessel count % control is 77.9% (inactive).

For the molecule `COC(=O)[C@H]1[C@H]2C[C@H]3c4[nH]c5ccccc5c4CCN3C[C@H]2CC[C@@H]1O`, the vessel count % control was 110% (inactive).

Take `CN(C)CCOC(=O)COc1ccc(Cl)cc1`: the vessel count % control was 102% (inactive). As to `CCCOC(=O)c1c(-c2ccccc2)nc(CC)c(C(=O)SCC)c1CCC`, the vessel count % control was 98% (inactive). In the case of `Cc1cn([C@H]2C[C@@H](N=[N+]=[N-])[C@@H](CO)O2)c(=O)[nH]c1=O`, the vessel count % control was 91.6% (inactive). Regarding `O=c1c(O)c(-c2ccc(O)cc2O)oc2cc(O)cc(O)c12`, the vessel count % control is 108% (inactive). On to `Oc1ccccc1O`, for which the vessel count % control is 96.4% (inactive). Consider `CC(C)NC[C@H](O)COc1cccc2[nH]ccc12`, for which the vessel count % control was 97.6% (inactive) and 70.7% (inactive). Next, `C[N+]1(C)CCOC(O)(c2ccc(-c3ccc(C4(O)C[N+](C)(C)CCO4)cc3)cc2)C1` (configuration not stated): 103% (inactive). Turning to `NNc1nncc2ccccc12`, the vessel count % control is 92.2% (inactive). With `CCCN1CCC[C@H](c2cccc(O)c2)C1`, the vessel count % control is 77.4% (inactive). Regarding `OCC1NC[C@@H](O)C(O)[C@@H]1O` (some centres not stated), the vessel count % control was 89.4% (inactive).

Regarding `O=Nc1c(-c2c(O)[nH]c3ccc(F)cc23)[nH]c2ccccc12`, the vessel count % control is 48.1% (inactive). Take `CC(=O)O[C@H]1C(=O)[C@@]2(C)C([C@H](OC(=O)c3ccccc3)[C@]3(O)C[C@H](OC(=O)[C@H](O)[C@@H](NC(=O)c4ccccc4)c4ccccc4)C(C)=C1C3(C)C)[C@]1(OC(C)=O)CO[C@@H]1C[C@@H]2O` (some centres not stated): the vessel count % control is 82.3% (inactive). On to `N#C/C(=C\c1ccc(O)c(O)c1)C(=O)Nc1ccccc1`, for which the vessel count % control is 104% (inactive). `NNCc1cccc(O)c1`: the vessel count % control was 85.8% (inactive). Next, `CN1C2CCC1CC(OC(=O)C(CO)c1ccccc1)C2` (configuration not stated): 120% (inactive) and 116% (inactive).

Take `CCCN(CCC)C1Cc2cc(OC)c(OC)cc2C1`: the vessel count % control was 72.2% (inactive). As for `Nc1c(S(=O)(=O)O)cc(Nc2ccc(Nc3nc(Cl)nc(Nc4ccc(S(=O)(=O)O)cc4)n3)c(S(=O)(=O)O)c2)c2c1C(=O)c1ccccc1C2=O`, the vessel count % control was 106% (inactive). As for `CC[C@H](NC(=O)c1c(C)c(-c2ccccc2)nc2ccccc12)c1ccccc1`, the vessel count % control is 126% (inactive). With `O=C1C=CC(=O)C=C1`, the vessel count % control is 84.8% (inactive). For the molecule `CC(C)C[C@H](N)CSSC[C@@H](N)CC(C)C`, the vessel count % control was 39.2% (inactive). As to `CC(CCc1ccccc1)NCC(O)c1ccc(O)c(C(N)=O)c1` (configuration not stated), the vessel count % control is 89.9% (inactive).

For `CCCn1c(C)c(C(=O)c2ccc3ccccc3c2)c2ccccc21`, the vessel count % control is 110% (inactive).

On to `Cn1cnc2c(NCc3ccccc3)nc(NCCO)nc21`, for which the vessel count % control is 98.8% (inactive). Next, `CC(N)Cc1c[nH]c2ccc(OCc3cccs3)cc12` (configuration not stated): 107% (inactive); `CC(C)(C=O)Cc1cc(C(C)(C)C)c(O)c(C(C)(C)C)c1`: 98.1% (inactive); `N[C@@H](CCC(=O)N[C@H](CSN=O)C(=O)NCC(=O)O)C(=O)O`: 97.4% (inactive). Then `COc1ccc(-n2nc(C(F)(F)F)cc2-c2ccc(Cl)cc2)cc1`, with 126% (inactive); and `O=C1C(c2c(O)[nH]c3ccc(F)cc23)=Nc2ccccc21`, with 59% (inactive). In the case of `Nc1ccc(S(=O)(=O)Nc2ccnn2-c2ccccc2)cc1`, the vessel count % control is 122% (inactive).

Turning to `CCCCNc1cc(C(=O)O)cc(S(N)(=O)=O)c1Oc1ccccc1`, the vessel count % control is 59.2% (inactive). Regarding `CC(C)NC[C@@H](O)c1ccc(O)c(O)c1`, the vessel count % control is 108% (inactive). As for `Nc1ncn([C@@H]2O[C@H](CO)[C@@H](O)[C@H]2O)c(=O)n1`, the vessel count % control is 65.2% (inactive). On to `CCOC(=O)C1=C(C)NC(C)=C(C(=O)OC)C1c1cccc([N+](=O)[O-])c1` (configuration not stated), for which the vessel count % control is 89.9% (inactive). In the case of `CCCn1cnc2c1c(=O)n(CCCCC(C)=O)c(=O)n2C`, the vessel count % control was 107% (inactive). Regarding `C=CCN1CCC2(C)c3cc(O)ccc3CC1C2C` (configuration not stated), the vessel count % control was 109% (inactive). As for `CCC1(c2ccc(N)cc2)CCC(=O)NC1=O` (configuration not stated), the vessel count % control is 98.8% (inactive).

Turning to `COC(=O)[C@H]1[C@H]2C[C@@H]3c4[nH]c5cc(OC)ccc5c4CCN3C[C@H]2C[C@@H](OC(=O)c2cc(OC)c(OC)c(OC)c2)[C@@H]1OC`, the vessel count % control was 75.8% (inactive). Then `Cn1cc(C(F)(F)F)nc1-c1ccc(OCC(O)CNCCOc2ccc(O)c(C(N)=O)c2)cc1` (configuration not stated), with 82.4% (inactive); and `Cc1ccc(S(=O)(=O)NC(=O)NN2CCCCCC2)cc1`, with 102% (inactive); and `CCc1c(C)[nH]c2c1C(=O)C(CN1CCOCC1)CC2` (configuration not stated), with 93.5% (inactive). As for `C/C(=C\c1ccc(C(=O)O)cc1)c1ccc2c(c1)C(C)(C)CCC2(C)C`, the vessel count % control was 70% (inactive).

On to `OCCN1CCN(CCCN2c3ccccc3Sc3ccc(Cl)cc32)CC1`, for which the vessel count % control was 99.2% (inactive). For the molecule `OC[C@H]1NC[C@@H](O)[C@@H]1O`, the vessel count % control was 96% (inactive).

Consider `C[C@H](O)C(=O)C1=Nc2c(nc(N)[nH]c2=O)NC1`, for which the vessel count % control is 117% (inactive). Turning to `COc1cc2c(c(OC)c1OC)-c1ccc(OC)c(=O)cc1[C@@H](NC(C)=O)CC2`, the vessel count % control is 116% (inactive). As to `CC(=O)N1CCN(c2ccc(OC[C@H]3CO[C@](Cn4ccnc4)(c4ccc(Cl)cc4Cl)O3)cc2)CC1`, the vessel count % control was 113% (inactive). As to `C[C@]12CCC(=O)C=C1CC[C@@H]1[C@@H]2[C@@H](O)C[C@@]2(C)[C@H]1CC[C@]2(O)C(=O)CO`, the vessel count % control is 102% (inactive). Next, `CC(C)(C)NCC(O)c1ccccc1Cl` (configuration not stated): 130% (inactive). As to `CCCCCCCCCCCCCCCCCCOC[C@H](COP(=O)([O-])OCC[N+](C)(C)C)OC`, the vessel count % control is 97.5% (inactive). `NC1CCN(O)C1=O` (configuration not stated): the vessel count % control was 115% (inactive).

Regarding `CNCCCC12CCC(c3ccccc31)c1ccccc12`, the vessel count % control is 92.5% (inactive). In the case of `N=c1ccn2c(n1)OC1[C@@H](O)[C@@H](CO)O[C@H]12` (some centres not stated), the vessel count % control is 78.4% (inactive). Next, `CN(C)S(=O)(=O)c1ccc2c(c1)/C(=C/c1cc3c([nH]1)CCCC3)C(=O)N2`: 120% (inactive); `CCn1cc(C(=O)O)c(=O)c2cc3c(cc21)OCO3`: 121% (inactive). Turning to `[N-]=[N+]=Nc1ccc(C(=O)CSC[C@H](NC(=O)CC[C@H](N)C(=O)O)C(=O)NCC(=O)O)cc1`, the vessel count % control was 91.6% (inactive).

On to `COc1cccc(OC)c1OCCNCC1CSc2ccccc2O1` (configuration not stated), for which the vessel count % control was 71.1% (inactive). Next, `CC(N)c1cccc(Cl)c1Cl` (configuration not stated): 89.7% (inactive); `CN1CCC2(CCN3CCc4c(oc5ccccc45)C3C2)N(C)C1=O` (configuration not stated): 87.3% (inactive).

With `COc1cccc(OC)c1OCCNCC1COc2ccccc2O1` (configuration not stated), the vessel count % control was 90.6% (inactive). As for `CSC(=N)N`, the vessel count % control is 68.6% (inactive).

With `Cn1cnc2c(NC3CCCC3)ncnc21`, the vessel count % control is 95.9% (inactive). Regarding `NCCCNCCCCNCCCN`, the vessel count % control was 115% (inactive). Next, `COC(=O)[C@@H]1[C@H]2C[C@H]3c4[nH]c5ccccc5c4CCN3C[C@@H]2CC[C@@H]1O`: 95.4% (inactive); `CCN(CC)CCNC(=O)c1ccc(NC(C)=O)cc1`: 117% (inactive). Turning to `CC[N+](CC)(CC)CC(=O)Nc1c(C)cccc1C`, the vessel count % control is 85.1% (inactive). In the case of `CC[N+](C)(C)c1cccc(O)c1`, the vessel count % control was 114% (inactive).
